These results are taken from PubChem BioAssay (NCI).

Structures are written as SMILES.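 1) Cells in 96-well plates. 2) Compound, 48 h, 5 concentrations. 3) Linear interpolation between surrounding doses. 4) Unreached endpoint = highest concentration. Definition used: TGI = concentration required for complete inhibition of growth.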 Where a SMILES comes first, the peptide text is derived from it. [ ]: non-standard residue; d: D form. The star is where a group is joined. Boc = CC(C)(C)OC(=O)*; Lac = C[CH](O)C(=O)O; OBn = c1ccc(CO*)cc1

Among the test systems are SK-MEL-2 melanoma; UO-31 renal; HOP-92 NSCLC; NCI/ADR-RES ovarian; COLO 205 colon; RXF 393 renal; K-562 leukemia; HCT-15 colon; HT29 colon; U251 CNS; OVCAR-8 ovarian; SR leukemia; OVCAR-3 ovarian.
What all share (assay): NCI tumour cell line growth inhibition, 48 h

In the case of `O=c1ccn([C@@H]2C[C@H]2CO)c(=O)[nH]1`, the TGI with SK-MEL-2 melanoma, in the assay on UO-31 renal, in the assay on HOP-92 NSCLC, with NCI/ADR-RES ovarian, in the assay with COLO 205 colon and in the assay with RXF 393 renal was more than 100 µM each time. The TGI with K-562 leukemia, with HCT-15 colon, in the assay with HT29 colon, in the assay on U251 CNS, in the assay with OVCAR-8 ovarian and with SR leukemia was more than 100 µM in each case.

As to `CC1=NN(c2nc(N)nc(/C(C#N)=C/c3ccccc3O)n2)C(C)(C)C1`, the TGI in the assay with SK-MEL-2 melanoma turned out to be 39.6 µM; in the assay with UO-31 renal, 36.5 µM; in the assay with HOP-92 NSCLC, 36.7 µM; in the assay on NCI/ADR-RES ovarian it was 47 µM; in the assay on COLO 205 colon it was 31.5 µM; in the assay with RXF 393 renal it was 39.5 µM. Besides, the TGI is more than 100 µM in the assay with K-562 leukemia; 38.6 µM with HCT-15 colon; 42.6 µM with HT29 colon; 27.8 µM in the assay with OVCAR-3 ovarian; 41.3 µM in the assay with U251 CNS; 61.6 µM in the assay with OVCAR-8 ovarian. In addition, in the assay on SR leukemia, the TGI was more than 100 µM.

Take `CC1OC(OC2C(OC(=O)[C@]34CCC(C)(C)C[C@H]3C3=CC[C@@H]5[C@@]6(C)CC[C@H](OC7OC(C(=O)O)C(O)C(O)C7O)C(C)(C)[C@@H]6CC[C@@]5(C)[C@]3(C)C[C@H]4O)OCC(O)C2O)C(O)C(O)C1OC1OCC(OC2OCC(O)C(O)C2O)C(O)C1O` (stereo partly specified): the TGI with SK-MEL-2 melanoma is 11.7 µM; in the assay with UO-31 renal, 4.84 µM; with HOP-92 NSCLC it was 19.5 µM; in the assay on NCI/ADR-RES ovarian it was 25.1 µM; with COLO 205 colon it was 3.32 µM; with RXF 393 renal, 29 µM. In addition, the TGI turned out to be 47.8 µM with K-562 leukemia; 28 µM in the assay on HCT-15 colon; 11 µM in the assay on HT29 colon; 30 µM in the assay with OVCAR-3 ovarian; 21.2 µM in the assay on U251 CNS; 32.3 µM in the assay with OVCAR-8 ovarian. Moreover, the TGI in the assay on SR leukemia amounted to 53.9 µM.

As for `CS(=O)(=O)OCCCCOS(=O)(=O)CF`, the TGI in the assay with SK-MEL-2 melanoma is more than 100 µM; in the assay with UO-31 renal, more than 100 µM; in the assay with HOP-92 NSCLC, more than 92.4 µM; in the assay on NCI/ADR-RES ovarian, more than 100 µM; in the assay with COLO 205 colon, more than 100 µM; in the assay on RXF 393 renal, more than 100 µM. Also, the TGI with K-562 leukemia, in the assay on HCT-15 colon, in the assay with HT29 colon, with OVCAR-3 ovarian, in the assay on U251 CNS and with OVCAR-8 ovarian was more than 100 µM throughout. Further, the TGI in the assay with SR leukemia was more than 100 µM.

As to `CC(C)=C1C(=O)C[C@]2(C)C[C@H]3O[C@]3(C)CC[C@@H]3O[C@@]3(C)CC[C@@H]12`, the TGI with SK-MEL-2 melanoma, in the assay on UO-31 renal, in the assay on HOP-92 NSCLC, in the assay on NCI/ADR-RES ovarian, with COLO 205 colon and in the assay on RXF 393 renal was more than 50 µM in each case. The TGI in the assay on K-562 leukemia, in the assay on HCT-15 colon, with HT29 colon, with OVCAR-3 ovarian, in the assay on U251 CNS and in the assay with OVCAR-8 ovarian was more than 50 µM in each case. Also, the TGI in the assay on SR leukemia was more than 50 µM.

Regarding `NC(CCCCCCCCCCP(=O)(O)O)C(=O)O` (stereo unspecified), the TGI in the assay with SK-MEL-2 melanoma, in the assay with UO-31 renal, with HOP-92 NSCLC, in the assay with NCI/ADR-RES ovarian, with COLO 205 colon and in the assay with RXF 393 renal was more than 100 µM throughout. Besides, the TGI with K-562 leukemia, in the assay on HCT-15 colon, in the assay with HT29 colon, with OVCAR-3 ovarian, with U251 CNS and in the assay on OVCAR-8 ovarian was more than 100 µM each time. In addition, the TGI in the assay with SR leukemia is more than 100 µM.

Regarding `C=C1C[C@@H]2CC[C@@]34CC5O[C@H]6C(O[C@H]7CC[C@H](CC(=O)O[C@@H]8[C@@H](C)[C@@H]9O[C@@H]%10C[C@]%11(C[C@@H]%12O[C@]%13(C[C@H](C)[C@@H]%14O[C@@H]%15CC(C(O)CO)O[C@@H]%15C[C@@H]%14O%13)C[C@H](C)[C@@H]%12O%11)O[C@@H]%10C[C@@H]9O[C@H]8CC8O[C@@H](CC[C@@H]1O2)C[C@@H](C)C8(O)CO)O[C@@H]7[C@@H]6O3)[C@H]5O4` (stereo partly specified), the TGI in the assay on SK-MEL-2 melanoma, in the assay on UO-31 renal, in the assay with HOP-92 NSCLC, with NCI/ADR-RES ovarian, in the assay on COLO 205 colon and with RXF 393 renal was more than 1 µM throughout. Further, the TGI in the assay on K-562 leukemia, with HCT-15 colon, in the assay on OVCAR-3 ovarian, in the assay on U251 CNS, in the assay on OVCAR-8 ovarian and in the assay on SR leukemia was more than 1 µM each time.

Consider `COC1(c2ccc(Cl)cc2)SC=C(C)n2c1noc2=O` (stereo unspecified), for which the TGI is more than 100 µM in the assay on UO-31 renal; more than 100 µM in the assay on HOP-92 NSCLC; 94.9 µM in the assay on NCI/ADR-RES ovarian; more than 100 µM in the assay with COLO 205 colon; more than 100 µM in the assay with RXF 393 renal; more than 100 µM in the assay with K-562 leukemia. Besides, the TGI with HCT-15 colon, in the assay on HT29 colon, with OVCAR-3 ovarian, with U251 CNS and with SR leukemia was more than 100 µM each time.

As for `CC(OC(=O)C(Cc1ccccc1)NC(=O)C(Cc1ccccc1)NC(=O)OC(C)(C)C)C(=O)OCc1ccccc1` (stereo not drawn) (Boc-Phe-Phe-[Lac]-OBn; configuration not given here), the TGI in the assay on SK-MEL-2 melanoma, in the assay with UO-31 renal, in the assay with HOP-92 NSCLC, in the assay with NCI/ADR-RES ovarian, with COLO 205 colon and in the assay on RXF 393 renal was more than 100 µM each time. Further, the TGI in the assay on K-562 leukemia, in the assay with HCT-15 colon, in the assay with OVCAR-3 ovarian, with U251 CNS, in the assay on OVCAR-8 ovarian and in the assay with SR leukemia was more than 100 µM in each case.

For `COC(=O)NC(Nc1ccccn1)(C(F)(F)F)C(F)(F)F`, the TGI in the assay on SK-MEL-2 melanoma, in the assay with UO-31 renal, in the assay with HOP-92 NSCLC, in the assay with NCI/ADR-RES ovarian, in the assay on RXF 393 renal and in the assay on K-562 leukemia was more than 100 µM in each case. In addition, the TGI in the assay with HCT-15 colon, in the assay on HT29 colon, with OVCAR-3 ovarian, with U251 CNS, in the assay with OVCAR-8 ovarian and in the assay on SR leukemia was more than 100 µM each time.

In the case of `N#Cc1cccc2c1Sc1ccccc1N2`, the TGI in the assay with UO-31 renal is 87.9 µM; with HOP-92 NSCLC, more than 100 µM; in the assay with NCI/ADR-RES ovarian it was more than 100 µM; in the assay with COLO 205 colon it was 60.2 µM; in the assay on RXF 393 renal it was 33.7 µM; in the assay on K-562 leukemia, more than 100 µM. Also, the TGI in the assay with HCT-15 colon, with HT29 colon, in the assay on OVCAR-3 ovarian, in the assay on U251 CNS, with OVCAR-8 ovarian and in the assay with SR leukemia was more than 100 µM throughout.
